The text below walks through data of patent US10316077B2, “Cell-penetrating ATF5 polypeptides and uses thereof” (Sapience Therapeutics, Inc., priority 2017, dated 2019).

One may read the EC50 as the concentration that produces a half-maximal response.

Data set [1] relates to U87 cells. In words: Apo-ONE caspase 3/7 activation assay in U87 glioblastoma cells. It counts as cell-based. The procedure:
Activation of caspase enzymes occurs in the early stages of apoptosis. In this Example, we investigated the effect on caspase activation of ST-3 in combination with the Bcl-2 inhibitor ABT-263 (Navitoclax). U87 cells were prepared as described in Example 2 for T98G cells. Lyophilized ST-3 was freshly reconstituted in Tris Buffer at a concentration of 5 mg/mL, and adjusted to a working concentration of 200 μM. ST-3 was added to cells in 100 μL Tris Buffer at a final concentration range of 0-20 μM. […] Plates were incubated at ambient temperature in the dark for 1.5-2 hours. Fluorescence was recorded by Eppendorf PlateReader AF2200 at Ex. 485 nm/Em. 527 nm.

Data set [2] relates to HL60 promyelocytic leukemia (PML) cells. The data set is described as follows: Annexin V/PI cell viability assay in HL60 cells. It counts as cell-based, human. Particulars: for EC50: HL60, Annexin V/PI viability, 48 hours, read-out: EC50 (μM) of ATF-5-Derived Polypeptides in Cancer Cells, HL60. The procedure:
(§1) ST-3, reconstituted at a concentration of 10 mg/mL in 20 mM His, pH 7.5, was added to each well at a volume of 50 μL to a final concentration range of 0-80 μM. Cells were incubated with ST-3 for 48 hours at 37° C. Cell viability was quantified by flow cytometry using an Annexin V FITC apoptosis detection kit from Abcam. Briefly, cells were washed with PBS and resuspended in 1× assay buffer containing Annexin V FITC and propidium iodide (PI). Annexin V detects apoptotic cells, and PI stains dead cells. After staining, apoptotic cells show green fluorescence, dead cells show red and green fluorescence, and live cells show little or no fluorescence. Cells were selected for analysis based on forward scatter (FSC) vs. side scatter (SSC), and analyzed by BD Accuri C6 Plus flow cytometer to detect Annexin V-FITC binding (Ex=488 nm; Em=530 nm) using FITC signal detector and PI staining by the phycoerythrin emission signal detector. Percentage of Annexin V^low and PI^low were quantified and presented as % Viability.

For data set [3], the system named is U251 GBM cells. The data set is described as follows: Annexin V/PI cell viability assay in U251 cells. Format: cell-based. The conditions noted are these: 48-hour incubation, read-out: EC50 (μM) of ATF-5-Derived Polypeptides in Cancer Cells, U251. As for the experimental part:
as §1
(§2) Alternatively, adherent U251 or U87 cells were set at a density of 3.5×10^3 cells/well in 150 μL of media on day −1. On day 0, media was removed and replenished with 150 μL of fresh media, and cells were treated with ST-3 as described. […] Cell viability was determined as described above for suspension cells.

For data set [4], the system named is U87 cells. In words: Annexin V/PI cell viability assay in U87 cells. Format: cell-based. The conditions noted are these: 48-hour incubation, read-out: EC50 (μM) of ATF-5-Derived Polypeptides in Cancer Cells, U87. As for the experimental part: as §1, §2
The test system of data set [5] is T98G GBM cells.
Method: (§3) T98G cells were set at a density of 2×10^3/well in 200 μL of RPMI+1.5% fetal bovine serum (FBS) in black-walled Nunc™ MicroWell™ 96-Well Optical-Bottom Plates with Polymer Base.
(§4) On day −1, adherent T98G cells were washed of complete media (RPMI+10% FBS) with 6 mL Dulbecco's Phosphate Buffered Saline (DPBS), and dissociated from T25 Nunclon™ Delta flask with 2 mL trypsin at room temperature. Trypsin was quenched with 6 mL complete media, and cells were resuspended in fresh complete media at a concentration of 1×10^6 cells/mL. Cells were then adjusted to a concentration of 1×10^4 cells/mL in RPMI+1.5% FBS, and 200 μL of culture was added to each well (B2 to G11) of a Nunc™ 96-well Flat Bottom Black Polystyrol Clear Bottom plate to a final cell concentration of 2×10^3 cells/well. Cells were set in an incubator at 37° C. and 5% CO2 with humidity for 24 hours.
(§5) On day 0, 100 μL of media was removed from each well.
(§6) On day 3, media was removed from wells, and wells were washed with 100 μL DPBS. Cells were resuspended in 100 μL RPMI+10% FBS. CellTiter-Blue® Cell Viability Assay (Promega Corp., Madison, Wis.) was performed by adding 20 μL of CellTiter-Blue® reagent to each well. Plates were returned to the incubator at 37° C. and 5% CO2 with humidity for 1.5-2 hours. CellTiter-Blue® assay results were read by Eppendorf PlateReader AF2200 at Ex. 535 nm/Em. 595 nm according to manufacturer's instructions. Data is presented as % Viability. Cell viability was calculated as (Sample value/Buffer control value)×100. EC50 values were calculated using GraphPad Prism v.7 XML.
In data set [6] the test system is T98G GBM cells. The data set is described as follows: CellTiter-Blue cell viability assay in T98G cells. Particulars: read-out: EC50 (μM) of ATF-5-Derived Polypeptides in Cancer Cells, T98G, 72 hours.
Method: as §3, §4, §5, §6
The test system of data set [7] is neoplastic cells. The conditions noted are these: systemically administered; cited from earlier work.

“And” between values parts separate entries of the source, which are not always exact repeats. Identical values can stand only once. Ends that are not written are not given here.

Turning to `CN[C@@H]1C[C@H]2O[C@@](C)([C@@H]1OC)n1c3ccccc3c3c4c(c5c6ccccc6n2c5c31)C(=O)NC4` [Positive Control, staurosporine], the “% Caspase Activation, positive control” value in data set [1] (staurosporine 10 μM, reference set to 100) was determined as 100%.

For `CC1(C)CCC(c2ccc(Cl)cc2)=C(CN2CCN(c3ccc(C(=O)NS(=O)(=O)c4ccc(N[C@H](CCN5CCOCC5)CSc5ccccc5)c(S(=O)(=O)C(F)(F)F)c4)cc3)CC2)C1` [ABT-263, ABT-263 (Navitoclax)], the “% Caspase Activation, ABT-263 alone” value in data set [1] (ST-3 0 μM, ABT-263 0.5 μM, % of positive control) is 15.5% and 15.32%.

As to “YGRKKRRQRRLEGECQGLEARNRELKERAESV [ATF5 Polypeptide with Tat CPP]”, in data set [2] (HL-60 cell viability assay), the “cytotoxic activity” value was “has cytotoxic activity”.

As to “RQIKIWFQNRRMKWKKLEGECQGLEARNRELKERAESV [ST-3]”, the EC50 is 16 µM in data set [2], 42 µM in data set [3], 45 µM in data set [4] and 69 µM in data set [6]. Further, the “cytotoxic activity compared to ST-2” value in data set [5] is given as “unexpectedly superior cytotoxic activity over ST-2”.

In the case of “RQIKIWFQNRRMKWKKLEQRAEELARENEELLEKEAEELEQENAELEGECQGLEARNRELRERAESV [ST-2]”, the EC50 in data set [2], in data set [3], in data set [4] and in data set [6] was > 200 µM each time. The “blood-brain barrier crossing, cell entry and apoptosis of neoplastic cells” value in data set [7] was “can cross the blood-brain barrier, enter cells, and selectively trigger the apoptotic death of neoplastic cells”.
